This is an account of results in US20100234442A1, “Compositions and Methods for Treatment and Prevention of Cardiovascular Disease” (Nucitec S.A. de C.V., priority 2009, published 2010).

Each structure is given as a SMILES string.

The assay deals with hypercholesterolemic patients. As to the kind of experiment: 8-week, randomized, double-blind, active-controlled, parallel-group study of vascular markers in hypercholesterolemic patients. The class given is in vivo, human. The protocol: This was a 8-week, randomized, double-blind, active-controlled, parallel-group study. All patients provided written, informed consent before the start of the study.
Patients, investigator staff, persons performing the assessment, and data analysts remained blinded to the identity of the treatment from the time of randomization until data base lock. Treatments were all identical in packaging, labeling, schedule of administration and appearance. Treatments were administered to patients via a single pill.
20 hypercholesterolemic patients, ≧45 years old, were compared in this study. Patients were classified into one of four groups, consisting of five patients in each group.
Group I was treated with a single daily dose of simvastatin alone (20 mg). Group II was treated with a single daily dose simvastatin (20 mg) and acetylsalicylic acid (75 mg). Group III was treated with a single daily dose of simvastatin (20 mg) and enalapril (10 mg). Group IV was treated with a single daily dose of simvastatin (20 mg), acetylsalicylic acid (75 mg), and enalapril (10 mg). All patients were treated for eight weeks.
The primary efficacy variable was the change from the baseline to the final assessment in vascular markers of LDL-Cholesterol (LDL-C), C Reactive Protein (CRP), Interleukin 6 (IL-6), Systolic Blood Pressure (SBP), and nitric oxide (NO).

[1] abbreviates: change from baseline to final, eight weeks.
Where [2] appears, read: final assessment after eight weeks, single daily oral dose.

Regarding `CCC(C)(C)C(=O)O[C@H]1C[C@@H](C)C=C2C=C[C@H](C)[C@H](CC[C@@H]3C[C@@H](O)CC(=O)O3)[C@H]21` [Simvastatin alone, simvastatin], where the note is “baseline, before treatment”, the “IL-6 Baseline” value is given as 4.6 pg/mL, the “Nitric oxide Baseline” value stood at 87 µmol/L and the “SBP Baseline” value is on record as 142 mmHg. In addition, the “LDL-C Baseline” value (baseline, before treatment, five patients per group) was 159 mg/dL. Besides, under setting [1], the “CRP % Δ” value is on record as −18%, the “IL-6 % Δ” value was −39%, the “LDL-C % Δ” value is −38% and the “Nitric oxide % Δ” value is listed as −9%. Besides, the “SBP % Δ” value under setting [1] is listed as −0.8%. Moreover, under setting [2], the “IL-6 Final” value amounted to 2.8 pg/mL, the “LDL-C Final” value turned out to be 99 mg/dL, the “Nitric oxide Final” value came to 79 µmol/L and the “SBP Final” value worked out at 141 mmHg.
